We go through 21 compounds from US12404260B2, “Pyridine rings containing derivatives as MALT1 inhibitors” (Janssen Pharmaceutica NV, priority 2019, dated 2025).

Assay [1] has as its target T1, full-length MALT1 protein (Strep-MALT1(1-824)-His) (Homo sapiens, UniProt Q9UDY8).
T1 construct: full-length MALT1 protein (Strep-MALT1(1-824)-His) purified from baculovirus-infected insect cells; Strep (N); His (C); made in house; host or cells: baculovirus-infected insect cells
T1 sequence (Q9UDY8 1-824): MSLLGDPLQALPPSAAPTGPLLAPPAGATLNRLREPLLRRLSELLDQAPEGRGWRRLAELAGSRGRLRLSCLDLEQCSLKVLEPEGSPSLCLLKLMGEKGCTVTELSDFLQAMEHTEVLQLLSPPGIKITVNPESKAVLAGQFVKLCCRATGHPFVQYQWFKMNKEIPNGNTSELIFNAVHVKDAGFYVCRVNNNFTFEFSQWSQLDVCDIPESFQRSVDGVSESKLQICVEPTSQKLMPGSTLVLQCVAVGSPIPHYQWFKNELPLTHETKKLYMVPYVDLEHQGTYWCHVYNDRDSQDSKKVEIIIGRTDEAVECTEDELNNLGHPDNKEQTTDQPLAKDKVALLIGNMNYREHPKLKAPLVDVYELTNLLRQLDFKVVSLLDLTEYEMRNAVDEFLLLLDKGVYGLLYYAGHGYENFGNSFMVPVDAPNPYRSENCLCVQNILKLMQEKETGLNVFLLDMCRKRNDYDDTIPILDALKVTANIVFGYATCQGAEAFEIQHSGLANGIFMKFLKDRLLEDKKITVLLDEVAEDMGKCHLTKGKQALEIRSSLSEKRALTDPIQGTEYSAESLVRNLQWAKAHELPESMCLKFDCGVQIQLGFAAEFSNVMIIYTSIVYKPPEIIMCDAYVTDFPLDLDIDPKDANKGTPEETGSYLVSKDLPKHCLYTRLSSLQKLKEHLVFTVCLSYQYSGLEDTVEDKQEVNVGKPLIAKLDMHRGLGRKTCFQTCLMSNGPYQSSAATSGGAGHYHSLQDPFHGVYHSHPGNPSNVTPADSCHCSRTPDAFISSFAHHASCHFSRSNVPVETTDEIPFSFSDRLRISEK
Nature of the assay: MALT1 Biochemical Protease Assay. To be noted: 10 nM FL MALT1, 200 μM Ac-LRSR-AMC, 50 min pre-incubation, 4 h at RT; read-out: MALT1_Biochemical activity (Ac-LRSR-amc) IC50. The method, then: MALT1 protease activity was assessed in an in vitro assay using a tetrapeptide as substrate and full-length MALT1 protein (Strep-MALT1(1-824)-His) purified from baculovirus-infected insect cells. The tetrapeptide LRSR is coupled to AMC (7-amino-4-methylcoumarin) and provides a quenched, fluorescent substrate for the MALT1 protease (SM Biochemicals). Cleavage of AMC from the Arginine residue results in an increase in coumarin fluorescence measured at 460 nm (excitation 355 nm). The final assay buffer consisted of 10 nM FL MALT1 protein, 200 μM Ac-LRSR-AMC, 50 mM Tris pH 7.5, 0.6 M Citrate, 1 mM DTT, 1 mM EDTA, 0.05% BSA and 1.5% DMSO. Test compounds were spotted at 50 nL in 100% DMSO per well of a black 384-Proxiplate (Perkin Elmer). Test compound concentrations ranged from 30 μM to 0.5 nM using 11 dilution steps (1:3). Background signal was measured from control wells containing assay buffer without enzyme which functions as low control (LC). High control (HC) values were generated using the reaction with enzyme but no compound treatment. Compounds were pre-incubated with MALT1 enzyme for 50 minutes at RT. Substrate was added subsequently and fluorescence was measured in Labsystems fluoroskan at excitation 355 nm and emission 460 nm to determine time 0. The reaction was subsequently incubated for 4 h at RT and fluorescence was measured. For IC50 calculations, timepoint 0 was subtracted from the 4 h timepoint to correct for any potential autofluorescence of the compounds. The enzyme reaction was linear during the 4 h incubation period. Characterization of the substrate Ac-LRSR-AMC determined the Michaelis constant KM at 200 μM.
IC50 values were calculated using the following formula (Z prime should be >0.5): […]
A best-fit curve was fitted by a minimum sum of squares method to the plot of % Controlmin vs. compound concentration. From this an IC50 value (inhibitory concentration causing 50% inhibition) can be obtained. An estimate of the slope of the plot in terms of the Hill coefficient was also obtained.
Used in “Lexis Dose Response Curve Fitting” Version 1.0.

The subject of assay [2] is secretion of IL10 by OCI-LY3 ABC-DLBCL cells. In words: Human IL10 Mesoscale assay (OCI-LY3). It counts as cell-based. To be noted: 24 h incubation, IL10 in supernatant. As to the method: (§1) NFKB signaling regulates the secretion of multiple cytokines, including IL6 and IL10. Secretion of the cytokines IL6 and IL10 by OCI-LY3 ABC-DLBCL cells was measured using a mesoscale assay. Inhibition of NFKB signaling by MALT1 inhibitors results in a decrease of IL6/10 secretion.
(§2) OCI-LY3 cells were propagated in RPMI-1640 (Sigma Aldrich) supplemented with 10% fetal bovine serum (HyClone), 1 mM sodium pyruvate (Invitrogen), 2 mM L-glutamine (Sigma Aldrich) and 1% PenStrep (Sigma Aldrich). Cell passage number should not exceed 30. Cells should be kept between 0.5-2.5 million cells per mL during culturing and cells should be supplemented every 2-3 days with fresh 50 μM beta-mercaptoethanol. No beta-mercaptoethanol was used during the mesoscale assay.
(§3) For the Mesoscale assay, 100,000 OCI-LY3 cells were seeded per well into black-colored 96-well plates with clear bottom (Corning #3904) and test compounds were added in 9 dilution steps (1:2) ranging from 15 μM to 58.6 nM (final DMSO concentration 0.3%). DMSO control wells were used to determine the maximum signal (High Control (HC)). Treatment with the BTK inhibitor RN486 in a dose range from 30 nM to […] (9 dilutions of 1:2) served as a positive control for NFKB pathway inhibition and was used to determine the maximum inhibition (Low Control (LC)). Compounds and cells were incubated for 24 h at 37° C. and 5% CO2 (assay volume is 150 μL). After 24 h of incubation 50 μL of the supernatant was transferred to a MSD plate (V-Plex Proinflammation Panel 1 (human) kit, Mesoscale (MSD)) and incubated for 2 h with vigorous shaking (600 rpm) at room temperature. Following incubation, plates were washed 3× with PBS+0.05% Tween-20 and 25 μL detection antibody solution (IL6 & IL10 antibodies in diluent 3 (MSD)) was added per well followed by 2 h of incubation with vigorous shaking (600 rpm) at room temperature. After 3× washes with PBS+0.05% Tween-20, plates were incubated with 150 μL 2× Read Buffer T and read on SECTOR imager.

Assay [3] relates to secretion of IL6 by OCI-LY3 ABC-DLBCL cells. Nature of the assay: Human IL6 Mesoscale assay (OCI-LY3). The assay is classed as cell-based. To be noted: 24 h incubation, IL6 in supernatant. As to the method:
as §1, §2, §3

The structures appear in SMILES notation.

Broadly, the IC50 is the concentration that gives 50% inhibition. `COC(C)c1c(NC(=O)Nc2cnc(-n3ncc(C(C)O)n3)c(Cl)c2)cnc(C)c1C#N` (single isomer, unassigned) [Co. 114]: the half-maximal inhibitory concentration (IC50) in assay [1] was 0.06 µM; in assay [2] it was 0.17 µM; in assay [3], 0.4 µM.

Take `COC(C)c1c(NC(=O)Nc2cnc(-n3nccn3)c(C(F)(F)F)c2)cnc(C(F)F)c1C#N` (single isomer, unassigned) [Co. 127]: the IC50 in assay [1] was determined as 0.03 µM; in assay [2] it was 0.04 µM; in assay [3] it was 0.06 µM.

Take `COC(C)c1c(NC(=O)Nc2cnc(-n3nccn3)c(C(F)(F)F)c2)cnc(C(F)F)c1C#N` (single isomer, unassigned) [Co. 128]: the IC50 in assay [1] was 0.23 µM; in assay [2], 0.21 µM; in assay [3], 0.46 µM.

On to `[2H]C([2H])([2H])Oc1cncc(NC(=O)Nc2cnc(-n3nccn3)c(C(F)(F)F)c2)c1[C@H](C)OC` (single isomer, unassigned) [Co. 129], for which the IC50 in assay [1] was determined as 1.38 µM; in assay [2] (Homo sapiens), 1.02 µM; in assay [3] (Homo sapiens), 2.29 µM.

Take `[2H]C([2H])([2H])Oc1cncc(NC(=O)Nc2cnc(-n3nccn3)c(C(F)(F)F)c2)c1[C@@H](C)OC` (single isomer, unassigned) [Co. 130]: the values for the 50% inhibitory concentration (IC50) in assay [1], in assay [2] (Homo sapiens) and in assay [3] (Homo sapiens) were 0.05 µM, about 0.11 µM and 0.19 µM, respectively.

On to `[2H]C([2H])([2H])O[C@@H](C)c1c(NC(=O)Nc2cnc(-n3nccn3)c(C(F)(F)F)c2)cncc1OC` (single isomer, unassigned) [Co. 131], for which the IC50 in assay [1] was 1.02 µM; in assay [2] (Homo sapiens), about 0.89 µM; in assay [3] (Homo sapiens) it was 2.34 µM.

With `[2H]C([2H])([2H])O[C@H](C)c1c(NC(=O)Nc2cnc(-n3nccn3)c(C(F)(F)F)c2)cncc1OC` (single isomer, unassigned) [Co. 132], the IC50 came to 0.05 µM in assay [1], 0.06 µM in assay [2] (Homo sapiens) and 0.15 µM in assay [3] (Homo sapiens).

Consider `CO[C@@H](C)c1c(NC(=O)Nc2cnc(-n3nccn3)c(C(F)(F)F)c2)cnc(C(F)F)c1Cl` (single isomer, unassigned) [Co. 133], for which the IC50 in assay [1] was found to be 0.55 µM; in assay [2] (Homo sapiens) it was 0.31 µM; in assay [3] (Homo sapiens) it was 0.93 µM.

Consider `CO[C@H](C)c1c(NC(=O)Nc2cnc(-n3nccn3)c(C(F)(F)F)c2)cnc(C(F)F)c1Cl` (single isomer, unassigned) [Co. 134], for which the IC50 came out at 0.04 µM in assay [1], 0.08 µM in assay [2] (Homo sapiens) and 0.08 µM in assay [3] (Homo sapiens).

For `CO[C@H](C)c1c(NC(=O)Nc2cnc(OC(F)F)c(Cl)c2)cnc(N)c1Cl` (single isomer, unassigned) [Co. 136], the IC50 in assay [1] turned out to be 0.06 µM; in assay [2] (Homo sapiens), 0.03 µM; in assay [3] (Homo sapiens), 0.06 µM.

In the case of `COc1cncc(NC(=O)Nc2cc(C(F)(F)F)c(-n3nccn3)nc2OC)c1[C@H](C)OC` (single isomer, unassigned) [Co. 137], the results for the IC50 in assay [1], in assay [2] (Homo sapiens) and in assay [3] (Homo sapiens) were 0.04 µM, 0.08 µM and 0.08 µM, respectively.

As to `CO[C@H](C)c1c(NC(=O)Nc2cnc(-n3nccn3)c(C(F)(F)F)c2)cnc(N)c1Br` (single isomer, unassigned) [Co. 138], the IC50 in assay [1] turned out to be 0.29 µM; in assay [2] (Homo sapiens), 0.38 µM; in assay [3] (Homo sapiens), 0.6 µM.

With `CO[C@@H](C)c1c(NC(=O)Nc2cnc(-n3nccn3)c(C(F)(F)F)c2)cnc(N)c1Br` (single isomer, unassigned) [Co. 139], the concentration for half-maximal inhibition (IC50) is 0.02 µM in assay [1], 0.07 µM in assay [2] (Homo sapiens) and about 0.1 µM in assay [3] (Homo sapiens).

`COc1cncc(NC(=O)Nc2cc(Cl)c(-n3nccn3)nc2OC)c1[C@@H](C)OC` (single isomer, unassigned) [Co. 140]: the IC50 in assay [1] is about 0.62 µM; in assay [2] (Homo sapiens), 0.47 µM; in assay [3] (Homo sapiens), 0.54 µM.

For `COc1cncc(NC(=O)Nc2cc(Cl)c(-n3nccn3)nc2OC)c1[C@H](C)OC` (single isomer, unassigned) [Co. 141], the half-inhibitory concentration (IC50) came out at 0.06 µM in assay [1], 0.14 µM in assay [2] (Homo sapiens) and 0.13 µM in assay [3] (Homo sapiens).

For the compound `CO[C@H](c1c(NC(=O)Nc2cnc(-n3nccn3)c(C(F)(F)F)c2)cnc(C)c1Cl)C1CC1` (single isomer, unassigned) [Co. 142], the IC50 in assay [1] is 0.79 µM; in assay [2] (Homo sapiens), 0.78 µM; in assay [3] (Homo sapiens) it was 1.2 µM.

With `CO[C@@H](c1c(NC(=O)Nc2cnc(-n3nccn3)c(C(F)(F)F)c2)cnc(C)c1Cl)C1CC1` (single isomer, unassigned) [Co. 143], the IC50 in assay [1] worked out at 0.05 µM; in assay [2] (Homo sapiens), 0.05 µM; in assay [3] (Homo sapiens) it was 0.08 µM.

Turning to `CO[C@H](C)c1c(NC(=O)Nc2cnc(-n3nccn3)c(C(F)(F)F)c2)cnc(C(F)F)c1Br` (single isomer, unassigned) [Co. 144], the IC50 in assay [1] is 0.04 µM; in assay [2] (Homo sapiens) it was about 0.045 µM; in assay [3] (Homo sapiens), 0.06 µM.

Take `CO[C@H](C)c1c(NC(=O)Nc2ccnc(C(F)(F)F)c2)cnc(C)c1C#N` (single isomer, unassigned) [Co. 145]: the IC50 amounted to 0.29 µM in assay [1], 0.17 µM in assay [2] (Homo sapiens) and 0.26 µM in assay [3] (Homo sapiens).

Take `COc1cncc(NC(=O)Nc2cc(C(F)(F)F)c(-n3nccn3)nc2OC)c1[C@@H](C)OC` (single isomer, unassigned) [Co. 146]: the IC50 in assay [1] worked out at 0.27 µM; in assay [2] (Homo sapiens), 0.16 µM; in assay [3] (Homo sapiens) it was 0.32 µM.

For the compound `CO[C@@H](C)c1c(NC(=O)Nc2cnc(-n3nccn3)c(C(F)(F)F)c2)cnc(C(F)F)c1Br` (single isomer, unassigned) [Co. 147], the IC50 in assay [1] was found to be 0.56 µM; in assay [2] (Homo sapiens) it was 0.66 µM; in assay [3] (Homo sapiens), 0.85 µM.
